The values that follow come from US20210205195A1, “PRESERVED COMPOSITIONS” (Conopco, Inc., d/b/a UNILEVER, priority 2018, published 2021).

In experiment [1] the test system is Pseudomonas aeruginosa, Burkholderia cepacia, Strenotrophomonas sp. Nature of the experiment: Modified Ph. Eur. 5.1.3 microbial challenge test in hair conditioner, Pool 1 (Gram negative non-fermenters). Format: cell-based. How it is done: (§1) Itaconic acid, lactic acid and citric acid were purchased from Sigma-Aldrich. Six samples of unpreserved conditioner were dosed with 0.5% and 1% (w/w) itaconic acid, citric acid and lactic acid separately. An unpreserved sample was kept as a control. Each dosed product was adjusted to pH 5 using 50% sodium hydroxide (Sigma-Aldrich). A modified challenge test to that of the European Pharmacopoeia (Ph. Eur. Or EP) 5.1.3 criteria was performed on a subsample of unpreserved and each dosed product. The microbial challenge pools were added to each sample container at a ratio of 1:100. The final concentration of inoculum in the product should be 5×10^6 CFU/G of test product. Each product is mixed with a sterile spatula to ensure a homogenous distribution of the inocula throughout the product. [table] Both the inoculum level and the level of microorganism within each sample was quantified using a Total Viable Count (TVC) pour plate method at 7, 14, 21 and 28 days. A 1:10 dilution was made with a subsample of each product, performed separately in Peptone (0.1%)/tween 80 (2%) neutralising agent. A 1:10 and 1:100 dilution of each subsample was performed and pour plates produced at each dilution using tryptone soya agar. Plates were incubated at 28° C. for 48 hours and then examined for growth. Visible colonies were counted with the aid of a Quebec Colony Counter and recorded for analysis against the challenge test criteria. During the removal of a subsample of product for TVC, a reinoculation is performed at 7 and 14 days, reintroducing 5×10^6 CFU/G of bacteria before mixing using a sterile spatula to homogenise the reinoculation. [table]

In experiment [2] the test system is Enterobacter cloacae, Klebsiella sp. Nature of the experiment: Modified Ph. Eur. 5.1.3 microbial challenge test in hair conditioner, Pool 2 (Gram negative fermenters). Format: cell-based. How it is done: as §1
Where [3] appears, read: 0.5% (w/w) in conditioner, pH 5, Pool 1, 7 days.
The mark [4] stands for this setting: 0.5% (w/w) in conditioner, pH 5, Pool 1, 14 days.
The mark [5] stands for this setting: 0.5% (w/w) in conditioner, pH 5, Pool 1, 21 days.
[6] abbreviates: 0.5% (w/w) in conditioner, pH 5, Pool 1, 28 days.
The mark [7] stands for this setting: 1% (w/w) in conditioner, pH 5, Pool 1, 7 days.
[8] abbreviates: 1% (w/w) in conditioner, pH 5, Pool 1, 14 days.
Setting [9] is: 1% (w/w) in conditioner, pH 5, Pool 1, 21 days.
The mark [10] stands for this setting: 1% (w/w) in conditioner, pH 5, Pool 1, 28 days.
[11] abbreviates: 0.5% (w/w) in conditioner, pH 5, Pool 2, 7 days.
Setting [12] is: 0.5% (w/w) in conditioner, pH 5, Pool 2, 14 days.
Where [13] appears, read: 0.5% (w/w) in conditioner, pH 5, Pool 2, 21 days.
Setting [14] is: 0.5% (w/w) in conditioner, pH 5, Pool 2, 28 days.
Where [15] appears, read: 1% (w/w) in conditioner, pH 5, Pool 2, 7 days.
Setting [16] is: 1% (w/w) in conditioner, pH 5, Pool 2, 14 days.
[17] abbreviates: 1% (w/w) in conditioner, pH 5, Pool 2, 21 days.
Setting [18] is: 1% (w/w) in conditioner, pH 5, Pool 2, 28 days.

The structures appear in SMILES notation. A value given as a limit tells only on which side of the number the result lay.

Turning to `CC(O)C(=O)O` (stereo not drawn) [Lactic acid, lactic acid], the “Microbial Log reduction” value in experiment [1] (setting [3]) is over 5.85; in experiment [1] (setting [4]), over 5.89; in experiment [1] (setting [5]), over 5.79; in experiment [1] (setting [6]), over 5.79; in experiment [1] (setting [7]), over 5.85; in experiment [1] (setting [8]) it was over 5.89. The “Microbial Log reduction” value in experiment [1] (setting [9]) is recorded as over 5.79; in experiment [1] (setting [10]), over 5.79; in experiment [2] (setting [11]) it was 3.73; in experiment [2] (setting [12]), 3.70; in experiment [2] (setting [13]), under 2.82; in experiment [2] (setting [14]), under 2.82. The “Microbial Log reduction” value was 3.69 in experiment [2] (setting [15]), 3.58 in experiment [2] (setting [16]), 4.02 in experiment [2] (setting [17]) and 4.62 in experiment [2] (setting [18]).

`C=C(CC(=O)O)C(=O)O` [Itaconic acid]: the “Microbial Log reduction” value in experiment [1] (setting [3]) was over 5.85; in experiment [1] (setting [4]), over 5.89; in experiment [1] (setting [5]) it was over 5.79; in experiment [1] (setting [6]), over 5.79; in experiment [1] (setting [7]), over 5.85; in experiment [1] (setting [8]) it was over 5.89. Further, the “Microbial Log reduction” value is given as over 5.79 in experiment [1] (setting [9]); over 5.79 in experiment [1] (setting [10]); over 5.72 in experiment [2] (setting [11]); over 5.61 in experiment [2] (setting [12]); over 5.82 in experiment [2] (setting [13]); over 5.82 in experiment [2] (setting [14]). Besides, the “Microbial Log reduction” value is given as over 5.72 in experiment [2] (setting [15]), over 5.61 in experiment [2] (setting [16]), over 5.82 in experiment [2] (setting [17]) and over 5.82 in experiment [2] (setting [18]).

With `O=C(O)CC(O)(CC(=O)O)C(=O)O` [Citric acid, citric acid], the “Microbial Log reduction” value is listed as over 5.85 in experiment [1] (setting [3]); over 5.89 in experiment [1] (setting [4]); over 5.79 in experiment [1] (setting [5]); over 5.79 in experiment [1] (setting [6]); over 5.85 in experiment [1] (setting [7]); over 5.89 in experiment [1] (setting [8]). The “Microbial Log reduction” value in experiment [1] (setting [9]) is over 5.79; in experiment [1] (setting [10]), over 5.79; in experiment [2] (setting [11]), 3.20; in experiment [2] (setting [12]), 2.28; in experiment [2] (setting [13]), under 2.82; in experiment [2] (setting [14]), 2.72. Also, the “Microbial Log reduction” value in experiment [2] (setting [15]) is 4.67; in experiment [2] (setting [16]), 2.86; in experiment [2] (setting [17]), under 2.82; in experiment [2] (setting [18]) it was 3.69.
